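Exposure lasted 48 hours, with cells grown in 96-well plates and compounds tested at five concentrations. TGI is the concentration that stops growth completely.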
Columns and labels:
Test in all cases: inhibition of tumour cell growth, NCI panel, 48 h
A498 renal = system: A498 renal
BT-549 breast = system: BT-549 breast
CAKI-1 renal = system: CAKI-1 renal
CCRF-CEM leukemia = system: CCRF-CEM leukemia
COLO 205 colon = system: COLO 205 colon
DU-145 prostate = system: DU-145 prostate
HCC-2998 colon = system: HCC-2998 colon
HCT-116 colon = system: HCT-116 colon
HCT-15 colon = system: HCT-15 colon
HL-60(TB) leukemia = system: HL-60(TB) leukemia
HOP-62 NSCLC = system: HOP-62 NSCLC
HOP-92 NSCLC = system: HOP-92 NSCLC
HS 578T breast = system: HS 578T breast
HT29 colon = system: HT29 colon
IGROV1 ovarian = system: IGROV1 ovarian
K-562 leukemia = system: K-562 leukemia
KM12 colon = system: KM12 colon
LOX IMVI melanoma = system: LOX IMVI melanoma
M14 melanoma = system: M14 melanoma
MALME-3M melanoma = system: MALME-3M melanoma
MCF7 breast = system: MCF7 breast
MDA-MB-231 breast = system: MDA-MB-231 breast
MDA-MB-435 = system: MDA-MB-435
MDA-N = system: MDA-N
MOLT-4 leukemia = system: MOLT-4 leukemia
NCI-H226 lung = system: NCI-H226 lung
NCI-H23 lung = system: NCI-H23 lung
NCI-H460 lung = system: NCI-H460 lung
NCI/ADR-RES ovarian = system: NCI/ADR-RES ovarian
OVCAR-3 ovarian = system: OVCAR-3 ovarian
OVCAR-4 ovarian = system: OVCAR-4 ovarian
OVCAR-5 ovarian = system: OVCAR-5 ovarian
OVCAR-8 ovarian = system: OVCAR-8 ovarian
PC-3 prostate = system: PC-3 prostate
RPMI-8226 leukemia = system: RPMI-8226 leukemia
RXF 393 renal = system: RXF 393 renal
SF-295 CNS = system: SF-295 CNS
SK-MEL-2 melanoma = system: SK-MEL-2 melanoma
SK-MEL-28 melanoma = system: SK-MEL-28 melanoma
SK-MEL-5 melanoma = system: SK-MEL-5 melanoma
SK-OV-3 ovarian = system: SK-OV-3 ovarian
SN12C renal = system: SN12C renal
SNB-19 CNS = system: SNB-19 CNS
SNB-75 CNS = system: SNB-75 CNS
SR leukemia = system: SR leukemia
SW-620 colon = system: SW-620 colon
T-47D breast = system: T-47D breast
TK-10 renal = system: TK-10 renal
U251 CNS = system: U251 CNS
UACC-257 melanoma = system: UACC-257 melanoma
UACC-62 melanoma = system: UACC-62 melanoma
UO-31 renal = system: UO-31 renal
786-0 renal = system: 786-0 renal
A549 NSCLC = system: A549 NSCLC
ACHN renal = system: ACHN renal
EKVX NSCLC = system: EKVX NSCLC
NCI-H522 lung = system: NCI-H522 lung
SF-268 CNS = system: SF-268 CNS
SF-539 CNS = system: SF-539 CNS

CCCOC1OC(CS(=O)(=O)O)C(OC(C)=O)C(OC(C)=O)C1OC(C)=O (stereo not given)
TGI (A498 renal): > 100 µM | TGI (BT-549 breast): > 100 µM | TGI (CAKI-1 renal): > 100 µM | TGI (CCRF-CEM leukemia): > 100 µM | TGI (COLO 205 colon): > 100 µM | TGI (DU-145 prostate): > 100 µM | TGI (HCC-2998 colon): > 100 µM | TGI (HCT-116 colon): > 100 µM | TGI (HCT-15 colon): > 100 µM | TGI (HL-60(TB) leukemia): > 100 µM | TGI (HOP-62 NSCLC): > 100 µM | TGI (HOP-92 NSCLC): > 100 µM | TGI (HS 578T breast): > 100 µM | TGI (HT29 colon): > 100 µM | TGI (IGROV1 ovarian): > 100 µM | TGI (K-562 leukemia): > 100 µM | TGI (KM12 colon): > 100 µM | TGI (LOX IMVI melanoma): > 100 µM | TGI (M14 melanoma): > 100 µM | TGI (MALME-3M melanoma): > 100 µM | TGI (MCF7 breast): > 100 µM | TGI (MDA-MB-231 breast): > 100 µM | TGI (MDA-MB-435): > 100 µM | TGI (MDA-N): > 100 µM | TGI (MOLT-4 leukemia): > 100 µM | TGI (NCI-H226 lung): > 100 µM | TGI (NCI-H23 lung): > 100 µM | TGI (NCI-H460 lung): > 100 µM | TGI (NCI/ADR-RES ovarian): > 100 µM | TGI (OVCAR-3 ovarian): > 100 µM | TGI (OVCAR-4 ovarian): > 100 µM | TGI (OVCAR-5 ovarian): > 100 µM | TGI (OVCAR-8 ovarian): > 100 µM | TGI (PC-3 prostate): > 100 µM | TGI (RPMI-8226 leukemia): > 100 µM | TGI (RXF 393 renal): > 100 µM | TGI (SF-295 CNS): > 100 µM | TGI (SK-MEL-2 melanoma): > 100 µM | TGI (SK-MEL-28 melanoma): > 100 µM | TGI (SK-MEL-5 melanoma): > 100 µM | TGI (SK-OV-3 ovarian): > 100 µM | TGI (SN12C renal): > 100 µM | TGI (SNB-19 CNS): > 100 µM | TGI (SNB-75 CNS): > 100 µM | TGI (SR leukemia): > 100 µM | TGI (SW-620 colon): > 100 µM | TGI (T-47D breast): > 100 µM | TGI (TK-10 renal): > 100 µM | TGI (U251 CNS): > 100 µM | TGI (UACC-257 melanoma): > 100 µM | TGI (UACC-62 melanoma): > 100 µM | TGI (UO-31 renal): > 100 µM

CC(=O)NC1C(OCc2ccccc2)OC(CO)C(O)C1OCC(=O)N[C@@H](C)C(=O)N[C@H](CCC(=O)NCCCCNc1c2ccccc2nc2cccc([N+](=O)[O-])c12)C(N)=O (stereo not given in full)
TGI (786-0 renal): 10.1 µM | TGI (A498 renal): 5.9 µM | TGI (A549 NSCLC): > 100 µM | TGI (ACHN renal): 11.3 µM | TGI (BT-549 breast): 13.1 µM | TGI (CAKI-1 renal): > 23.2 µM | TGI (CCRF-CEM leukemia): > 100 µM | TGI (COLO 205 colon): 3.33 µM | TGI (DU-145 prostate): 12.4 µM | TGI (EKVX NSCLC): 8.97 µM | TGI (HCC-2998 colon): 2.91 µM | TGI (HCT-116 colon): 10 µM | TGI (HCT-15 colon): 14.7 µM | TGI (HL-60(TB) leukemia): > 100 µM | TGI (HOP-62 NSCLC): > 52.2 µM | TGI (HOP-92 NSCLC): 4.45 µM | TGI (HS 578T breast): > 31.3 µM | TGI (HT29 colon): 7.86 µM | TGI (IGROV1 ovarian): 4.74 µM | TGI (K-562 leukemia): > 100 µM | TGI (KM12 colon): 5.32 µM | TGI (LOX IMVI melanoma): 11.5 µM | TGI (M14 melanoma): > 22.2 µM | TGI (MALME-3M melanoma): 3.68 µM | TGI (MCF7 breast): 32 µM | TGI (MDA-MB-231 breast): 9.56 µM | TGI (MDA-MB-435): 3.96 µM | TGI (MDA-N): 4.15 µM | TGI (MOLT-4 leukemia): > 100 µM | TGI (NCI-H226 lung): 7.49 µM | TGI (NCI-H23 lung): 2.54 µM | TGI (NCI-H460 lung): 3.36 µM | TGI (NCI-H522 lung): 0.594 µM | TGI (NCI/ADR-RES ovarian): > 100 µM | TGI (OVCAR-3 ovarian): > 30.4 µM | TGI (OVCAR-4 ovarian): 2.85 µM | TGI (OVCAR-5 ovarian): > 27.5 µM | TGI (OVCAR-8 ovarian): 5.03 µM | TGI (PC-3 prostate): 9.44 µM | TGI (RPMI-8226 leukemia): 8.88 µM | TGI (SF-268 CNS): 14.5 µM | TGI (SF-295 CNS): 37.3 µM | TGI (SF-539 CNS): 6 µM | TGI (SK-MEL-2 melanoma): 5 µM | TGI (SK-MEL-28 melanoma): 23.4 µM | TGI (SK-MEL-5 melanoma): 2.58 µM | TGI (SK-OV-3 ovarian): > 71.8 µM | TGI (SN12C renal): 14.5 µM | TGI (SNB-19 CNS): 24 µM | TGI (SNB-75 CNS): 4.69 µM | TGI (SR leukemia): > 100 µM | TGI (SW-620 colon): 97 µM | TGI (T-47D breast): 9.51 µM | TGI (TK-10 renal): 16.7 µM | TGI (U251 CNS): 10.9 µM | TGI (UACC-257 melanoma): 5.36 µM | TGI (UACC-62 melanoma): 3.13 µM | TGI (UO-31 renal): 6.62 µM
